The test system of assay [1] is FABP5 together with PPARδ. Kind of assay: Transcriptional activation assay in cells overexpressing FABP5, with PPARδ activator GW0742. The assay is classed as cell-based. As to conditions: together with GW0742, FIG. 8. As to the method:
(§1) COS-7 were cultured in 6-well plates and co-transfected with either a luciferase reporter driven by 3 copies of a PPRE and expression vector for either PPARδ, PPARα or PPARγ together with a vector harboring cDNA for β-galactosidase, serving as a transfection control. To test whether FABP4 or FABP5 mediate activation of their cognate receptors PPARγ and PPARδ, respectively, cells were also co-transfected with a plasmid harboring sequence of either FABP4 or FABP5. 18 h post-transfection, cells were placed in a serum-free medium and treated with agonist/compound. 18 h. later, cells were lysed, luciferase activity was assayed (Promega, WI, USA) and corrected for transfection efficiency by the activity of β-galactosidase.

The test system of assay [2] is PPARδ targets PDPK1 and CD47 in TNBC cells MB-231. Kind of assay: Real-time PCR of PPARδ targets. It is filed as cell-based. As to conditions: MB-231, 1 μM, 6 hours. The protocol:
(§2) Cells were treated with a compound for 6 h. then lysed and RNA was extracted using Trizol, according to the manufacturer's instructions. cDNA was generated using GeneAmp RNA PCR (Applied Biosystems). qPCR was carried out using TaqMan chemistry and Assays-on-Demand probes (Applied Biosystems). 18s (4352930) rRNA was used for normalization. Relative expression was calculated as 2^−ΔΔCT.
For orientation: Real-time PCR tracks product formation cycle by cycle.

In assay [3] the test system is PPARγ. Kind of assay: Transactivation assay, PPRE luciferase reporter in COS-7 cells. It is filed as cell-based. Particulars: for activation of transcription by PPARγ: tested against rosiglitazone, FIG. 4; for activation of PPARγ: 5 μM, COS7 cells, FIG. 36C. As to the method: as §1
(§3) COS-7 were cultured in 6-well plates and co-transfected with either a luciferase reporter driven by 3 copies of a PPRE and expression vector for either PPARδ, PPARα or PPARγ together with a vector harboring cDNA for β-galactosidase, serving as a transfection control. 18 h. post-transfection, cells were placed in a serum-free medium and treated with agonist/compound. 18 h. later, cells were lysed, luciferase activity was assayed (Promega, WI, USA) and corrected for transfection efficiency by the activity of β-galactosidase.
For orientation: Reporter assays use an easily measured gene product as a stand-in for the process of interest.

Assay [4] concerns PPARδ. The assay is described as above. It is filed as cell-based. As to the method:
as §1, §3

Assay [5] concerns the target T1, PPARα (Homo sapiens, UniProt Q07869).
T1 construct: expressed in transfected cells; host or cells: COS-7
Described as above. It is filed as cell-based. The protocol: as §1, §3

The subject of assay [6] is TNBC lines and MCF7. Kind of assay: Proliferation assay in multiple TNBC lines and MCF7, MB-231 shF5 as control. The assay is classed as cell-based. The protocol: (§4) 2000 cells were plated in each well of 96-well plate. The next day cells were treated with compounds and incubated in Incucyte for 4 days. Images taken every 4 hours for the duration of the time were analyzed to calculate percentage of confluency in response to the treatments. Growth inhibition was calculated as 1−(percentage of viable cells out of untreated cells).

For assay [7], the system named is PPARδ targets PDPK1 and CD47 in TNBC cells MB-157. Kind of assay: Real-time PCR of PPARδ targets. It is filed as cell-based, human. Particulars: MB-157, 1 μM, 6 hours. The protocol: as §2
In assay [8] the test system is MB-231 shC and shF5 cells. Kind of assay: Proliferation assay, MB-231 lines expressing control shRNA (shC) or FABP5 shRNA (shF5). The assay is classed as cell-based. Particulars: MB-231 shC vs shF5, different concentrations. As to the method: as §4
Assay [9] deals with FABP4 together with PPARγ. Kind of assay: Transcriptional activation assay in cells overexpressing FABP4, with PPARγ activator rosiglitazone. It is filed as cell-based. Particulars: FIG. 7. The protocol:
as §1

For assay [10], the target named is T2, FABP4 (Homo sapiens, UniProt P15090).
T2 construct: made in house
Kind of assay: FABP binding assay by fluorescence titration (ANS competition). Particulars: fluorescence competition with ANS; read-out: FABP4 binding. The protocol: (§5) This example illustrates a binding assay study used to determine the binding affinity of the various inhibitor compounds disclosed herein with the various FABPs: FABP3, FABP4, FABP5 and FABP7.
(§6) Binding assays for FABP3, FABP4, FABP5 and FABP7 were carried out by fluorescence titrations. FABPs were bacterially expressed and purified and the equilibrium dissociation constants (Kd) that characterize their interactions with different compounds were measured by fluorescence competition assays. The method entails two steps as described in e.g., Lin, Q. et al., “Ligand selectivity of the peroxisome proliferator-activated receptor alpha,” Biochemistry 38, 185-190, doi:10.1021/bi9816094 bi9816094 [pii](1999). In the first step, Kd for the association of the protein with the fluorescent fatty acid probe ANS was measured. Protein ([…]) was titrated with ANS from a concentrated solution in DMSO. Ligand binding was monitored by following the increase in the fluorescence of the ligand upon binding to the protein, and Kd for the association of ANS with the each FABP was computed from titration curves as described in e.g., Norris, A. W. & Li, E., “Fluorometric titration of the CRABPs,” Methods Mol Biol 89, 123-139 (1998)). Kds for binding of non-fluorescent ligands were then measured by monitoring their ability to displace ANS in the binding pocket of the protein. Each FABP was pre-complexed with ANS at 1:1 molar ratio and titrated with the different compounds whose binding was reflected by a decrease in probe fluorescence. Kds were extracted from the EC50 of the competition curve and the measured Kd for ANS.
(§7) Binding assays for FABP3, FABP4, FABP5 and FABP7 were carried out by fluorescence titrations as described in Example 16.

Assay [11] addresses T3, FABP5 (Homo sapiens, UniProt Q01469).
T3 construct: made in house
The description is as above. As to conditions: fluorescence competition with ANS; read-out: FABP5 binding. As to the method:
as §5, §6, §7

Assay [12] deals with NPG human neuroblastoma cells. Kind of assay: Neuroblastoma proliferation assay with or without all-trans retinoic acid. As to conditions: for proliferation of neuroblastoma cells in combination with atRA: combined with atRA; for proliferation of neuroblastoma cells: compound alone, 4 days. The assay is classed as cell-based. As to the method:
(§8) COS-7, MDA-MB-231, HepG2, LX-2, 3T3-L1, NPG, and MCF7 were cultured in Dulbecco's modified Eagle's medium (DMEM) supplemented with 10% fetal bovine serum (Invitrogen Life Sciences, Carlsbad, CA). MDA-MB-157 and MB-549 cells were cultured in L-Glutamine containing RPMI medium supplemented with 10% fetal calf serum (Invitrogen Life Sciences, Carlsbad, CA). For proliferation assays, 2000 cells were plated in each well of 96-well plate. The next day cells were treated with compounds and incubated in Incucyte for 4 days. Images taken every 4 hours for the duration of the time were analyzed to calculate percentage of confluency in response to the treatments.
Activation of PPARβ by atRA shifts the signaling of this vitamin from its cognate receptor RAR that is known to have anti-carcinogenic activities in multiple cancers to the pro-carcinogenic PPARβ. […] Accordingly, NB, human NPG cells were used to test the effect of FABP5 inhibitors on cells' proliferation in combination with atRA. Cells were treated with either B104 or B108 in the presence or absence of atRA.

Assay [13] relates to MB-231 cells. Kind of assay: Proliferation assay (Incucyte confluency, 4 days). It is filed as cell-based. Particulars: MB-231, serial dilution. As to the method:
as §8
The TNBC line MB-231 was used to calculate the efficacy of compounds B104, B106, B110, B116, and B118 in inhibiting proliferation of the cancer cells. Cells were treated with serial dilution of the compounds or the known FABP5/7 inhibitor SBF-I26 and proliferation was measured in Incucyte by calculating percentage of confluency every 4 hours over 4 days. […] The EC50 for each compound was calculated by fitting the percentage of inhibition vs. the logarithmic transformation of the used concentrations (FIG. 37B and FIG. 37D). Additionally, the effect of B116 and B118 was also tested on proliferation of the human TNBC lines MDA-MB-157 (FIG. 37E) and MB-549 (FIG. 37F).

Structures are written as SMILES. pKd: −log10 of the molar value.

T3 sequence (Q01469 whole entry, species assumed): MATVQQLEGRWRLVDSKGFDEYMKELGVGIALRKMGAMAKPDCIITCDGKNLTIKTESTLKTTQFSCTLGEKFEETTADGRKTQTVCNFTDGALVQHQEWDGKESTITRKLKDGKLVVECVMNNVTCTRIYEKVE
T2 sequence (P15090 whole entry, species assumed): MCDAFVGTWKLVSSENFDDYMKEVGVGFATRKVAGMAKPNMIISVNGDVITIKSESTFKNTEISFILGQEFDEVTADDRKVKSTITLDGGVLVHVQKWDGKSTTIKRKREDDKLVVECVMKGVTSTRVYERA
T1 sequence (Q07869 whole entry, species assumed): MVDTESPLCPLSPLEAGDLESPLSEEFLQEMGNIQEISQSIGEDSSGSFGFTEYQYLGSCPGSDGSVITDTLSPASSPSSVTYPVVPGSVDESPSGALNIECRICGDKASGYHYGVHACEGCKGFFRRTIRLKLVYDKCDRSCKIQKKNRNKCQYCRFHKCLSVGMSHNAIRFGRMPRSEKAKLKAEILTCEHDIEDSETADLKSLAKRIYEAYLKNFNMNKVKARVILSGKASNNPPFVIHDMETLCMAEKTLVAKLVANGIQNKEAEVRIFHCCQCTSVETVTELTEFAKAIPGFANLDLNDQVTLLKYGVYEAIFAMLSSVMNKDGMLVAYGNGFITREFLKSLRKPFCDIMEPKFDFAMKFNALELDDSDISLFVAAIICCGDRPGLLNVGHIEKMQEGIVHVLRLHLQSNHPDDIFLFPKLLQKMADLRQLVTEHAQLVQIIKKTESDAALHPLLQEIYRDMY

As to `O=C(O)CSCC(=O)Nc1cc(OCc2ccccc2)c(Cl)cc1Cl` [Compound B7], the “inhibition of PPARδ activity in cells overexpressing FABP5” value in assay [1] was “inhibit activity of the nuclear receptors only in cells that express the binding proteins”. For the same compound, the “levels of endogenous PPARδ targets PDPK1 and CD47” value in [2] and in [7] was “significantly lower” throughout. Moreover, the “activation of transcription by PPARγ” value in assay [3] was “did not activate transcription”. Besides, the “activation of transcription by PPARδ” value in assay [4] (compared to GW0742, FIG. 5) was “did not active transcription”. The “activation of PPARα” value in [5] (compared to WY-14643, FIG. 6) is recorded as “activate PPARα”. Moreover, in assay [6], the “growth inhibition of TNBC lines by FABP5 level” value is “inhibited growth of only TNBC lines expressing high FABP5 levels”. The “TNBC cell growth, shC versus shF5” value in [8] is “suppressed TNBC cell growth only in the cells highly expressing FABP5”. In addition, the “inhibition of PPARγ activity in cells overexpressing FABP4” value in assay [9] is reported as “inhibit activity of the nuclear receptors only in cells that express the binding proteins”.
As for `C#CCOc1cc(NC(=O)CSCC(=O)O)c(Cl)cc1Cl` [Compound B9], in assay [1], the “inhibition of PPARδ activity in cells overexpressing FABP5” value was “inhibit activity of the nuclear receptors only in cells that express the binding proteins”. The “levels of endogenous PPARδ targets PDPK1 and CD47” value in assay [2] and in assay [7] was “significantly lower” throughout. In assay [3], the “activation of transcription by PPARγ” value is recorded as “did not activate transcription”. Moreover, the “activation of transcription by PPARδ” value in [4] (compared to GW0742, FIG. 5) is “did not active transcription”. In addition, the “growth inhibition of TNBC lines by FABP5 level” value in assay [6] is “inhibited growth of only TNBC lines expressing high FABP5 levels”. Also, the “TNBC cell growth, shC versus shF5” value in [8] is “suppressed TNBC cell growth only in the cells highly expressing FABP5”. Further, the “inhibition of PPARγ activity in cells overexpressing FABP4” value in assay [9] is listed as “inhibit activity of the nuclear receptors only in cells that express the binding proteins”.
`CC(C)Oc1cc(NC(=O)CSC(C)C(=O)O)c(Cl)cc1Cl` (centres unmarked) [Compound B102, 2-((2-((2,4-dichloro-5-isopropoxyphenyl)amino)-2-oxoethyl)thio)propanoic acid]: the results for the pKd in [10] and in [11] were 6.94 and 8.22, respectively.
`CC(C)Oc1cc(NC(=O)CSC(C)(C)C(=O)O)c(Cl)cc1Cl` [Compound B104, 2-((2-((2,4-dichloro-5-isopropoxyphenyl)amino)-2-oxoethyl)thio)-2-methylpropanoic acid]: the “activation of PPARγ” value in assay [3] was “activate both PPARα and PPARγ”. Further, in assay [4] (5 μM, COS7 cells, FIG. 36A), the “activation of transcription by PPARδ” value was “do not Activate Transcription”. In addition, the “activation of PPARα” value in assay [5] (5 μM, COS7 cells, FIG. 36B) was “activate both PPARα and PPARγ”. In addition, in [12], the “proliferation of neuroblastoma cells in combination with atRA” value was “enhanced” and the “proliferation of neuroblastoma cells” value is reported as “significantly inhibited proliferation”. The pKd in assay [10] was 7.01. For the same compound, the pKd in assay [11] is 8.15. For the same compound, the “suppression of growth of TNBC cells compared with SBF-I26” value (shortened to “suppression … compared with SBF-I26”) in assay [13] is listed as “Suppress Growth of TNBC Cells More Effectively than the Commercially Available Inhibitor SBF-I26”.
On to `CC(C)Oc1cc(NC(=O)C(C)SC(C)C(=O)O)c(Cl)cc1Cl` (centres unmarked) [Compound B106, 2-((1-((2,4-dichloro-5-isopropoxyphenyl)amino)-1-oxopropan-2-yl)thio)propanoic acid], for which the pKd was 6.54 in [10] and 7.82 in assay [11].
`CC(C)Oc1cc(NC(=O)C2CCC(C(=O)O)S2)c(Cl)cc1Cl` (centres unmarked) [Compound B108, 5-((2,4-dichloro-5-isopropoxyphenyl)-carbamoyl)tetrahydrothiophene-2-carboxylic acid]: in assay [3], the “activation of PPARγ” value was “activated PPARγ”. Further, the “activation of transcription by PPARδ” value in [4] (5 μM, COS7 cells, FIG. 36A) was “do not Activate Transcription”. For the same compound, the “proliferation of neuroblastoma cells in combination with atRA” value in assay [12] is “enhanced”. In assay [12], the “proliferation of neuroblastoma cells” value is listed as “significantly inhibited proliferation”. Moreover, the results for the pKd in assay [10] and in [11] were 7.32 and 8.70, respectively. The “suppression … compared with SBF-I26” value in assay [13] was “Suppress Growth of TNBC Cells More Effectively than the Commercially Available Inhibitor SBF-I26”.
On to `CC(C)Oc1cc(NC(=O)COCC(=O)O)c(Cl)cc1Cl` [Compound B110, 2-(2-((2,4-dichloro-5-isopropoxyphenyl)amino)-2-oxoethoxy)acetic acid], for which, in [4] (5 μM, COS7 cells, FIG. 36A), the “activation of transcription by PPARδ” value was “do not Activate Transcription”. For the same compound, the pKd in [10] is 6.62; in [11], 7.82. Further, the “suppression … compared with SBF-I26” value in assay [13] is recorded as “Suppress Growth of TNBC Cells More Effectively than the Commercially Available Inhibitor SBF-I26”.
Consider `CC(C)Oc1cc(NC(=O)C2CCC(C(=O)O)O2)c(Cl)cc1Cl` (centres unmarked) [Compound B112, 5-((2,4-dichloro-5-isopropoxyphenyl)carbamoyl)tetrahydrofuran-2-carboxylic acid], for which the pKd in assay [10] was 6.94; in assay [11], 7.82.
In the case of `CC(C)Oc1cc(NC(=O)CCCC(=O)O)c(Cl)cc1Cl` [Compound B114, 5-((2,4-dichloro-5-isopropoxyphenyl)amino)-5-oxopentanoic acid], the pKd was 6.66 in assay [10] and 8.22 in assay [11].
